From patent US20250381179A1, “CHROMAN-BASED COMPOUNDS FOR TREATING CANCER” (priority 2024, published 2025)

Assay: Phase 1 study: safety and tolerability (TEAEs, NCI CTCAE v5.0)
Experimental: The study employed an open-label, 3+3 design, with the option of adding backfill patients to each cohort cleared and deemed safe. […] Tumor responses were assessed every 2 cycles using RECIST v1.1 criteria. […] The study also involves an ongoing dose escalation study where participants receive 100 mg, 200 mg, 300 mg, 400 mg, and 600 mg once daily (QD) dose levels.
Safety was assessed through the analysis of the reported incidence of treatment-emergent AEs. Treatment-emergent AEs are those with an onset on or after the initiation of therapy and will be graded according to NCI CTCAE Version 5.0. Other safety endpoints, including laboratory results, vital signs, and ECG findings, were summarized for all patients in the Safety set.

O=C1CC[C@H](N2Cc3cc(N4CCN(CC5CCN(c6ccc([C@@H]7c8ccc(O)cc8OC[C@@H]7c7ccccc7)cc6F)CC5)CC4)ccc3C2=O)C(=O)N1 [compound (1-g), (S)-3-(5-(4-((1-(2-fluoro-4-((3S,4R)-7-hydroxy-3-phenylchroman-4-yl)phenyl)piperidin-4-yl)methyl)piperazin-1-yl)-1-oxoisoindolin-2-yl)piperidine-2,6-dione]
1 (8.3) n (%): TEAE: Abdominal Pain (200 mg QD (N = 12)) | TEAE: Adrenal Insufficiency (200 mg QD (N = 12)) | TEAE: Anaemia (200 mg QD (N = 12)) | TEAE: Axillary Vein Thrombosis (200 mg QD (N = 12)) | TEAE: Back Pain (200 mg QD (N = 12)) | TEAE: Breast Pain (200 mg QD (N = 12)) | TEAE: Constipation (200 mg QD (N = 12)) | TEAE: Cough (200 mg QD (N = 12)) | TEAE: Dehydration (200 mg QD (N = 12)) | TEAE: Dyspnoea (200 mg QD (N = 12)) | TEAE: Dysuria (200 mg QD (N = 12)) | TEAE: Fall (200 mg QD (N = 12)) | TEAE: Fracture (200 mg QD (N = 12)) | TEAE: Hot Flush (200 mg QD (N = 12)) | TEAE: Hyperglycaemia (200 mg QD (N = 12)) | TEAE: Hyperhidrosis (200 mg QD (N = 12)) | TEAE: Hypokalaemia (200 mg QD (N = 12)) | TEAE: Influenza Like Illness (200 mg QD (N = 12)) | TEAE: Insomnia (200 mg QD (N = 12)) | TEAE: Lower Respiratory Tract Congestion (200 mg QD (N = 12)) | TEAE: Lymphocyte Count Decreased (200 mg QD (N = 12)) | TEAE: Muscular Weakness (200 mg QD (N = 12)) | TEAE: Musculoskeletal Stiffness (200 mg QD (N = 12)) | TEAE: Nasal Congestion (200 mg QD (N = 12)) | TEAE: Nausea (200 mg QD (N = 12)) | TEAE: Neutrophil Count Decreased (200 mg QD (N = 12)) | TEAE: Ophthalmic Migraine (200 mg QD (N = 12)) | TEAE: Pain In Extremity (200 mg QD (N = 12)) | TEAE: Pharyngitis (200 mg QD (N = 12)) | TEAE: Pneumonia (200 mg QD (N = 12)) | TEAE: Productive Cough (200 mg QD (N = 12)) | TEAE: Rash Maculo-Papular (200 mg QD (N = 12)) | TEAE: Seizure (200 mg QD (N = 12)) | TEAE: Sepsis (200 mg QD (N = 12)) | TEAE: Upper Respiratory Tract Infection (200 mg QD (N = 12))
1 (25.0) n (%): related TEAE: Hot Flush (100 mg QD (N = 4)) | related TEAE: Nausea (100 mg QD (N = 4)) | related TEAE: Neutrophil Count Decreased (100 mg QD (N = 4)) | related TEAE: Tremor (100 mg QD (N = 4))
11 (91.7) n (%): Patients with Any TEAE (200 mg QD (N = 12))
0 n (%): related TEAE: Fatigue (100 mg QD (N = 4)) | related TEAE: Flatulence (100 mg QD (N = 4)) | related TEAE: Hyperhidrosis (100 mg QD (N = 4)) | related TEAE: Nail Disorder (100 mg QD (N = 4)) | related TEAE: Platelet Count Decreased (100 mg QD (N = 4)) | related TEAE: Vomiting (100 mg QD (N = 4)) | TEAE: Abdominal Distension (200 mg QD (N = 12)) | TEAE: Acute Kidney Injury (200 mg QD (N = 12)) | TEAE: Alopecia (200 mg QD (N = 12)) | TEAE: Anxiety (200 mg QD (N = 12)) | TEAE: Basal Cell Carcinoma (200 mg QD (N = 12)) | TEAE: Confusional State (200 mg QD (N = 12)) | TEAE: Covid-19 Pneumonia (200 mg QD (N = 12)) | TEAE: Diarrhoea (200 mg QD (N = 12)) | TEAE: Dizziness (200 mg QD (N = 12)) | TEAE: Dysgeusia (200 mg QD (N = 12)) | TEAE: Dyspepsia (200 mg QD (N = 12)) | TEAE: Eructation (200 mg QD (N = 12)) | TEAE: Flatulence (200 mg QD (N = 12)) | TEAE: Fungal Infection (200 mg QD (N = 12)) | TEAE: Haematoma (200 mg QD (N = 12)) | TEAE: Hypotension (200 mg QD (N = 12)) | TEAE: Muscle Spasm (200 mg QD (N = 12)) | TEAE: Nail Disorder (200 mg QD (N = 12)) | TEAE: Oedema Peripheral (200 mg QD (N = 12)) | TEAE: Oral Pain (200 mg QD (N = 12)) | TEAE: Platelet Count Decreased (200 mg QD (N = 12)) | TEAE: Pleural Effusion (200 mg QD (N = 12)) | TEAE: Rhinitis Allergic (200 mg QD (N = 12)) | TEAE: Rib Fracture (200 mg QD (N = 12)) | TEAE: Tremor (200 mg QD (N = 12))
3 (25.0) n (%): Patients with Any Compound (1-g) related TEAE (200 mg QD (N = 12))
2 (16.7) n (%): TEAE: Arthralgia (200 mg QD (N = 12)) | TEAE: Fatigue (200 mg QD (N = 12))
